Results: US6632803B1, “Pharmaceutical formulations containing voriconazole” (Pfizer Inc, priority 1997, dated 2003)
Converted amounts (≈) assume the structure as drawn.

Assays:
Type in all cases: physicochemical
[1] = aqueous solubility of voriconazole; conditions: aqueous solution, pH 3, aqueous buffer
log D of voriconazole = test: log D of voriconazole
stability in water = conditions: inactive enantiomer formed from recombination of retro-aldol products of hydrolysis

- solubility [1]: 200 µg/mL (≈ 573 µM)
- logD (log D of voriconazole): 1.8
- stability in water (stability in water): not stable in water
SMILES: C[C@@H](c1ncncc1F)[C@](O)(Cn1cncn1)c1ccc(F)cc1F [Voriconazole]
